Measured values as given in PMC7586336 (Journal of Medicinal Chemistry, 2020).
Values after ≈ are worked out from the molar mass of the structure shown.

Experiments:
P. aeruginosa PAO1 wt = assay: Antibiotic susceptibility; format: cell-based, Pseudomonas aeruginosa
P. aeruginosa PA14 ΔlecA = assay: Antibiotic susceptibility; format: cell-based; settings: Pseudomonas aeruginosa
P. aeruginosa PA14 ΔlecB = assay: Antibiotic susceptibility; format: cell-based; settings: Pseudomonas aeruginosa
P. aeruginosa PA14 wt = assay: Antibiotic susceptibility; format: cell-based, Pseudomonas aeruginosa
E. coli gyrase = E. coli gyrase (Escherichia coli, UniProt P0AES4+P0AES6); format: biochemical
E. coli DSM 1116 = assay: Antibiotic susceptibility; format: cell-based; settings: Escherichia coli, DSM1116
Calu-3 HTB-55 = assay: Cell permeability, Transwell system; format: in vitro ADME, human; settings: after 4 h, data not shown
HEK293 cells = assay: Cytotoxicity; format: cell-based, human; settings: HEK 293 and A549, 100 μM, 48 h incubation
[1] = Microsomal stability, human liver microsomes; format: in vitro ADME; settings: one experiment
[2] = Microsomal stability, mouse liver microsomes; format: in vitro ADME; settings: one experiment
E. coli K12 MG1655 = assay: Antibiotic susceptibility; format: cell-based; settings: Escherichia coli
A549 cells = assay: Cytotoxicity; format: cell-based, human; settings: 48 h, MTT
[3] = P. aeruginosa PA14 wt + 1 μg/mL PMBN
[4] = P. aeruginosa PAO1 wt + 1 μg/mL PMBN

Chain of E. coli gyrase (P0AES4 whole entry, one chain of several): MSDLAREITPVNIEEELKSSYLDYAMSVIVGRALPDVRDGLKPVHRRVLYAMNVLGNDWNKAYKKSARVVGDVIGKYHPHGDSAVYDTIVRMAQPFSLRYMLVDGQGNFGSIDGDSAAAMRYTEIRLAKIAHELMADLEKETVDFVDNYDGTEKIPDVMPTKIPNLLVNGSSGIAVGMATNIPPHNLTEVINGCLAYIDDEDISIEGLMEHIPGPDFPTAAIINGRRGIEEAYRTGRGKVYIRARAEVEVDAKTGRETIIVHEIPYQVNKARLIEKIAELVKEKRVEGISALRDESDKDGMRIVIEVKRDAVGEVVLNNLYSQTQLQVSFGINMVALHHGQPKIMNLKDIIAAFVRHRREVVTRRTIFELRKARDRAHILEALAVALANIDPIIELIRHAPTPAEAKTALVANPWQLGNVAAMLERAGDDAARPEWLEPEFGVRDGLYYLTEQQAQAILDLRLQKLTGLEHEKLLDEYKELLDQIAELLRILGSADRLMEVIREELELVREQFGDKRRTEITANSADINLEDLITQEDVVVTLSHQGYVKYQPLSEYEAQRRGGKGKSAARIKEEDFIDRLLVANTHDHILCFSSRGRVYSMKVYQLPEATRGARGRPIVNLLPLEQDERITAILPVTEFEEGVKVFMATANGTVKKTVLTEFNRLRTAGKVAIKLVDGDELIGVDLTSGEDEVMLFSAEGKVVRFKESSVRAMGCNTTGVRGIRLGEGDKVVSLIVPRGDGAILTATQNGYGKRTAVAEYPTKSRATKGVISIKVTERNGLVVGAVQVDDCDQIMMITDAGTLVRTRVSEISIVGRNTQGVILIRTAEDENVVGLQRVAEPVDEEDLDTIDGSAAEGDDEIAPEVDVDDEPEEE

| SMILES | MIC (P. aeruginosa PAO1 wt; Pseudomonas aeruginosa, PAO1) [µg/mL] | MIC (P. aeruginosa PA14 ΔlecA) [µg/mL] | MIC (P. aeruginosa PA14 ΔlecB) [µg/mL] | MIC (P. aeruginosa PA14 wt; [3]) [µg/mL] | MIC (P. aeruginosa PA14 wt; Pseudomonas aeruginosa, PA14) [µg/mL] | MIC (P. aeruginosa PAO1 wt; [4]) [µg/mL] | factor of decrease in gyrase inhibitory concentration compared to 3 (E. coli gyrase) | MIC (E. coli DSM 1116) [µg/mL] | permeation (apical to basal) over Calu-3 HTB-55 cells (Calu-3 HTB-55) | acute cytotoxicity (in words) (HEK293 cells) | metabolic stability CLMIC HLM [1] [μL/min/mg protein] | metabolic stability CLMIC MLM [2] [μL/min/mg protein] | MIC (E. coli K12 MG1655) [µg/mL] | cytotoxicity @ 100 μM A549 (A549 cells) |
| --- | --- | --- | --- | --- | --- | --- | --- | --- | --- | --- | --- | --- | --- | --- |
| O=C(O)c1cn(C2CC2)c2cc(N3CCNCC3)c(F)cc2c1=O [compound 3, ciprofloxacin, reference compound] | 0.025 to 0.08 (≈ 0.0754 to 0.241 µM) | 0.05 to 0.08 (≈ 0.151 to 0.241 µM) | 0.05 to 0.08 (≈ 0.151 to 0.241 µM) | – | – | – | – | – | – | – | – | – | – | – |
| C#CCN1CCN(c2cc3c(cc2F)c(=O)c(C(=O)O)cn3C2CC2)CC1 [compound 20, N-Propargyl-ciprofloxacin] | 4 to 8 (≈ 10.8 to 21.7 µM) | 4 to 8 (≈ 10.8 to 21.7 µM) | – | 0.025 to 0.5 | 2 to 4 (≈ 5.41 to 10.8 µM) | 1 to 2 | 3.5 | – | – | – | – | – | – | – |
| O=C(Cn1cc(CN2CCN(c3cc4c(cc3F)c(=O)c(C(=O)O)cn4C3CC3)CC2)nn1)Nc1ccc(S[C@@H]2O[C@H](CO)[C@H](O)[C@H](O)[C@H]2O)cc1 [compound 22] | 16 to 32 (≈ 21.6 to 43.3 µM) | 16 to 32 (≈ 21.6 to 43.3 µM) | 16 to 32 (≈ 21.6 to 43.3 µM) | 4 to 16 | – | 4 to 8 | – | 2 to 4 (≈ 2.7 to 5.41 µM) | No detectable permeation | no cytotoxicity | 10 | 10 | – | – |
| O=C(Cn1cc(CCN2CCN(c3cc4c(cc3F)c(=O)c(C(=O)O)cn4C3CC3)CC2)nn1)Nc1ccc(S[C@@H]2O[C@H](CO)[C@H](O)[C@H](O)[C@H]2O)cc1 [compound 23] | – | – | – | 16 to 64 | – | 32 to 64 | – | – | – | – | – | – | 8 to 16 (≈ 10.6 to 21.2 µM) | – |
| O=C(CCn1cc(CN2CCN(c3cc4c(cc3F)c(=O)c(C(=O)O)cn4C3CC3)CC2)nn1)Nc1ccc(S[C@@H]2O[C@H](CO)[C@H](O)[C@H](O)[C@H]2O)cc1 [compound 24] | – | 8 to 16 (≈ 10.6 to 21.2 µM) | 8 to 32 (≈ 10.6 to 42.5 µM) | 8 to 16 | 8 to 16 (≈ 10.6 to 21.2 µM) | 4 to 8 | – | 2 to 4 (≈ 2.65 to 5.31 µM) | – | – | – | – | – | – |
| O=C(CCn1cc(CCN2CCN(c3cc4c(cc3F)c(=O)c(C(=O)O)cn4C3CC3)CC2)nn1)Nc1ccc(S[C@@H]2O[C@H](CO)[C@H](O)[C@H](O)[C@H]2O)cc1 [compound 25] | – | – | – | 32 to 64 | – | 32 to 64 | – | – | – | – | – | – | – | – |
| O=C(CCCn1cc(CN2CCN(c3cc4c(cc3F)c(=O)c(C(=O)O)cn4C3CC3)CC2)nn1)Nc1ccc(S[C@@H]2O[C@H](CO)[C@H](O)[C@H](O)[C@H]2O)cc1 [compound 26] | 16 to 32 (≈ 20.8 to 41.7 µM) | 8 to 16 (≈ 10.4 to 20.8 µM) | 8 to 16 (≈ 10.4 to 20.8 µM) | – | 8 to 16 (≈ 10.4 to 20.8 µM) | 4 to 8 | – | 2 to 32 (≈ 2.6 to 41.7 µM) | – | – | – | – | 1 to 2 (≈ 1.3 to 2.6 µM) | – |
| O=C(CCCn1cc(CCN2CCN(c3cc4c(cc3F)c(=O)c(C(=O)O)cn4C3CC3)CC2)nn1)Nc1ccc(S[C@@H]2O[C@H](CO)[C@H](O)[C@H](O)[C@H]2O)cc1 [compound 27] | – | – | – | 32 to 64 | – | 32 to 64 | – | 4 to 32 (≈ 5.12 to 40.9 µM) | – | – | – | – | – | – |
| O=C(CCCCn1cc(CN2CCN(c3cc4c(cc3F)c(=O)c(C(=O)O)cn4C3CC3)CC2)nn1)Nc1ccc(S[C@@H]2O[C@H](CO)[C@H](O)[C@H](O)[C@H]2O)cc1 [compound 28] | 32 to 64 (≈ 40.9 to 81.9 µM) | – | 32 to 64 (≈ 40.9 to 81.9 µM) | 2 to 8 | – | 8 to 16 | – | 4 to 32 (≈ 5.12 to 40.9 µM) | – | – | – | – | 2 to 4 (≈ 2.56 to 5.12 µM) | – |
| O=C(CCCCn1cc(CCN2CCN(c3cc4c(cc3F)c(=O)c(C(=O)O)cn4C3CC3)CC2)nn1)Nc1ccc(S[C@@H]2O[C@H](CO)[C@H](O)[C@H](O)[C@H]2O)cc1 [compound 29] | – | – | – | 32 to 64 | – | 32 to 64 | – | 4 to 32 (≈ 5.03 to 40.2 µM) | – | – | – | – | – | – |
| C[C@@H]1O[C@H](CNS(=O)(=O)c2ccc(CCn3cc(CN4CCN(c5cc6c(cc5F)c(=O)c(C(=O)O)cn6C5CC5)CC4)nn3)s2)[C@@H](O)[C@H](O)[C@@H]1O [compound 30] | – | – | – | – | – | 32 to 64 | – | 16 to 32 (≈ 21 to 42 µM) | No detectable permeation | no cytotoxicity | 15 | 10 | 8 to 16 (≈ 10.5 to 21 µM) | –9 ± 15 % inhibition |
